Values of other authors as cited in patent publication US10117956B2, “Radiolabeled active targeting pharmaceutical composition and the use thereof” (Institute of Nuclear Energy Research Atomic Energy Council, …, priority 2013, dated 2018).

Details: 30 minutes after injection

## O=C[C@H](O)[C@@H](O)[C@H](O)[C@H](O)CF [6-FDG, 6-fluoro-6-deoxy-D-glucose]
  concentration in the blood: 1.11 % ID/g
